The NIST ThermoML archive (doi:10.1021/je301284x)

Assays:
[1] = for mass density / electrical conductivity / viscosity: 101.33 kPa, Liquid; for mass density: Vibrating tube method; for viscosity: Concentric cylinders viscometry; for Normal melting temperature: Crystal; for Normal melting temperature / Glass transition temperature: DTA
[2] = Molar enthalpy of transition or fusion; conditions: Crystal; DSC

CCC[NH+](CC)CC.O=S(=O)([O-])C(F)(F)F [N,N-diethylpropan-1-aminium trifluoromethanesulfonate]
[1]
Conditions	electrical conductivity [S/m]	mass density [kg/m3]	viscosity [mPa·s]
288.15 K	–	1237	–
293.15 K	–	1229	–
298.15 K	–	1222	–
303.15 K	0.384	1215	54.3
308.15 K	–	1208	–
313.15 K	–	1201	–
323.15 K	0.71	–	26.8
343.15 K	1.13	–	15.3
363.15 K	1.71	–	9.76
383.15 K	2.22	–	6.71
403.15 K	2.88	–	4.87
423.15 K	3.57	–	3.73
443.15 K	4.31	–	–

Conditions	Molar enthalpy of transition or fusion [kcal/mol]	Normal melting temperature [°C]
[1]	–	-14.00
[2]	5.02	–

CCC[NH+](C)C.O=S(=O)([O-])C(F)(F)F [N,N-dimethylpropan-1-aminium trifluoromethanesulfonate]
[1]
Conditions	electrical conductivity [S/m]	mass density [kg/m3]	viscosity [mPa·s]
288.15 K	–	1291	–
293.15 K	–	1284	–
298.15 K	–	1276	–
303.15 K	0.901	1269	33.2
308.15 K	–	1262	–
313.15 K	–	1254	–
323.15 K	1.57	–	18
343.15 K	2.39	–	11
363.15 K	3.25	–	7.42
383.15 K	4.29	–	5.32
403.15 K	5.3	–	4.04
423.15 K	6.4	–	3.19
443.15 K	7.68	–	–

Conditions	Molar enthalpy of transition or fusion [kcal/mol]	Normal melting temperature [°C]
[1]	–	20.00
[2]	4.78	–

C=CC[NH+](CC)CC.O=S(=O)([O-])C(F)(F)F [N,N-diethylprop-2-en-1-aminium trifluoromethanesulfonate]
[1]
Conditions	electrical conductivity [S/m]	mass density [kg/m3]	viscosity [mPa·s]
288.15 K	–	1270	–
293.15 K	–	1263	–
298.15 K	–	1255	–
303.15 K	0.419	1247	51
308.15 K	–	1240	–
313.15 K	–	1232	–
323.15 K	0.785	–	25.5
343.15 K	1.26	–	14.9
363.15 K	1.81	–	9.64
383.15 K	2.43	–	6.7
403.15 K	3.17	–	4.94
423.15 K	3.91	–	3.87
443.15 K	4.71	–	–

Conditions	Glass transition temperature [°C]	Molar enthalpy of transition or fusion [kcal/mol]	Normal melting temperature [°C]
[1]	-99.00	–	-14.00
[2]	–	5.02	–

C=CC[NH+](C)CC=C.O=S(=O)([O-])C(F)(F)F
[1]
Conditions	electrical conductivity [S/m]	mass density [kg/m3]	viscosity [mPa·s]
288.15 K	–	1268	–
293.15 K	–	1261	–
298.15 K	–	1253	–
303.15 K	0.469	1246	38.5
308.15 K	–	1239	–
313.15 K	–	1231	–
323.15 K	0.893	–	19.7
343.15 K	1.43	–	11.6
363.15 K	2.06	–	7.61
383.15 K	2.74	–	5.39
403.15 K	3.54	–	–
423.15 K	4.39	–	–
443.15 K	5.21	–	–

Conditions	Glass transition temperature [°C]	Molar enthalpy of transition or fusion [kcal/mol]	Normal melting temperature [°C]
[1]	-88.00	–	-19.00
[2]	–	2.63	–

CCC[NH+](C)CCC.O=S(=O)([O-])C(F)(F)F [N-methyl-N-propylpropan-1-aminium trifluoromethanesulfonate]
[1]
Conditions	electrical conductivity [S/m]	mass density [kg/m3]	viscosity [mPa·s]
293.15 K	–	1218	–
298.15 K	–	1211	–
303.15 K	0.415	1203	48.7
308.15 K	–	1196	–
313.15 K	–	1189	–
323.15 K	0.772	–	23.9
343.15 K	1.23	–	13.6
363.15 K	1.81	–	8.63
383.15 K	2.48	–	5.96
403.15 K	3.18	–	4.4
423.15 K	4.04	–	3.44
443.15 K	4.88	–	–

Conditions	Molar enthalpy of transition or fusion [kcal/mol]	Normal melting temperature [°C]
[1]	–	17.00
[2]	3.35	–

CC[NH+](C)CC.O=S(=O)([O-])C(F)(F)F [diethylmethylammonium trifluoromethanesulfonate]
[1]
Conditions	electrical conductivity [S/m]	mass density [kg/m3]	viscosity [mPa·s]
288.15 K	–	1299	–
293.15 K	–	1292	–
298.15 K	–	1284	–
303.15 K	0.833	1277	36.9
308.15 K	–	1270	–
313.15 K	–	1262	–
323.15 K	1.45	–	19.4
343.15 K	2.15	–	12.1
363.15 K	3.15	–	8.13
383.15 K	3.91	–	5.82
403.15 K	4.73	–	4.41
423.15 K	5.46	–	3.48
443.15 K	5.97	–	–

Conditions	Molar enthalpy of transition or fusion [kcal/mol]	Normal melting temperature [°C]
[1]	–	-6.00
[2]	3.82	–

C=CC[NH+](C)C.O=S(=O)([O-])C(F)(F)F [N,N-dimethylprop-2-en-1-aminium trifluoromethanesulfonate]
[1]
Conditions	electrical conductivity [S/m]	mass density [kg/m3]	viscosity [mPa·s]
288.15 K	–	1318	–
293.15 K	–	1311	–
298.15 K	–	1303	–
303.15 K	0.968	1295	28.8
308.15 K	–	1288	–
313.15 K	–	1280	–
323.15 K	1.74	–	16.4
343.15 K	2.65	–	10.4
363.15 K	3.73	–	7.11
383.15 K	4.92	–	5.18
403.15 K	6.19	–	3.95
423.15 K	7.48	–	3.17
443.15 K	8.82	–	–

Conditions	Molar enthalpy of transition or fusion [kcal/mol]	Normal melting temperature [°C]
[1]	–	16.00
[2]	5.02	–
